Series [1] in a line: Solubility test in 10% CD or CD derivative solution. In kind it is physicochemical. The note with it: thermodynamic from solid, room temperature. As to the method: To 5 mL of a 10% CD or CD derivative solution, about 100 mg of Compound A monohydrate was added, and stirred at room temperature for 24 hours. To the solutions in which αCD, HPαCD, DMβCD and methyl-β-cyclodextrin were used, about 100 mg of Compound A monohydrate was added after 6 hours. After centrifugation (3000 rpm, 10 minutes), the supernatant was filtered with a filter, and the solubility was measured by the HPLC method.

Series [2] has as its system multidrug-resistant Pseudomonas aeruginosa clinical isolate (S-2838 strain). Briefly: Defense against mouse systemic infection using multidrug-resistant Pseudomonas aeruginosa. The note with it: male ICR mice, S-2838 strain i.p., 25 mg/kg. Type of series: in vivo. As to the method: The mice used were male ICR SPF mice (4 weeks old: 5 individuals per group).
To prepare a bacterial inoculum solution, a multidrug-resistant Pseudomonas aeruginosa clinical isolate (S-2838 strain) cultured overnight at 37° C. on a Mueller-Hinton agar plate was cultured for 5 hours in a cation-adjusted Mueller-Hinton medium and then diluted 10-fold with a 10% mucin/phosphate buffer solution to prepare the inoculum solution.
Infection was induced by the intraperitoneal inoculation of 0.5 mL of the inoculum solution (approximately 10^6 CFU/mouse) to each mouse. […] Three days after the infection, the number of survivors was recorded.

Series [3] relates to Pseudomonas aeruginosa clinical isolate (S-2838 strain). The series is described as follows: Mouse model with urinary tract infection by multidrug-resistant Pseudomonas aeruginosa. In kind it is in vivo. Conditions: female ICR mice, S-2838 strain via urethra, 12.5 mg/kg. As to the method:
The mice used were female ICR SPF mice (5 weeks old: 5 individuals per group).
(§1) To prepare a bacterial inoculum solution, a Pseudomonas aeruginosa clinical isolate (S-2838 strain) was suspended in sterile saline.
Infection was induced by the inoculation of 0.2 mL of the inoculum solution (approximately 10^3 CFU/mouse) through the urethra of each mouse. […] The numbers of bacterial colonies of the next day of the infection in the kidneys were recorded, and an average thereof was calculated.

The test system is the same in series [4]. Briefly: Mouse model with pulmonary infection by multidrug-resistant Pseudomonas aeruginosa. Type of series: in vivo. The note with it: cyclophosphamide-treated male ICR mice, S-2838 strain intranasal, 25 mg/kg. The method, then:
The mice used were male ICR SPF mice (4.5 weeks old at the time of infection: 5 individuals per group). In order to achieve a transient compromised state, cyclophosphamide was intraperitoneally administered at a dose of 200 mg/kg to each mouse 4 days before injection.
as §1
Infection was induced by the inoculation of 0.05 mL of the inoculum solution (approximately 10^5 CFU/mouse) to each mouse intranasally. […] The numbers of bacterial colonies of the next day of the infection in the lungs were recorded, and an average thereof was calculated.

In general, solubility refers to the dissolved amount per volume that the medium holds. Read a high solubility as much dissolved substance.

Some results are limits rather than exact numbers.

With `CNC(=O)[C@@](C)(C(=O)NO)N(C)C(=O)c1ccc(C#Cc2ccc([C@H](O)CO)cc2)cc1` [Compound A monohydrate, (2S)-2-((4-((4-((1S)-1,2-dihydroxyethyl)phenyl)ethynyl)benzoyl)(methyl)amino)-N-hydroxy-N′,2-dimethylmalonamide], the solubility at 24 h in series [1] (10% DMβCD solution, aqueous with cosolvent or surfactant or cyclodextrin, 10% DM β CD solution) came out at 16.6 mg/mL; in series [1] (10% HPαCD solution, aqueous with cosolvent or surfactant or cyclodextrin, 10% HP α CD solution) it was 25.7 mg/mL; in series [1] (10% HPβCD solution, aqueous with cosolvent or surfactant or cyclodextrin, 10% HP β CD solution) it was 11.6 mg/mL; in series [1] (10% HPγCD solution, aqueous with cosolvent or surfactant or cyclodextrin, 10% HP γ CD solution), 8.8 mg/mL; in series [1] (10% SBEβCD solution, aqueous with cosolvent or surfactant or cyclodextrin, 10% SBE β CD solution), 8.9 mg/mL; in series [1] (10% αCD solution, aqueous with cosolvent or surfactant or cyclodextrin, 10% α CD solution), 30.2 mg/mL. Moreover, the solubility at 24 h in series [1] (10% βCD solution, aqueous with cosolvent or surfactant or cyclodextrin, 10% β CD solution) worked out at 5.9 mg/mL; in series [1] (10% γCD solution, aqueous with cosolvent or surfactant or cyclodextrin, 10% γ CD solution), 14.4 mg/mL; in series [1] (aqueous with cosolvent or surfactant or cyclodextrin, 10% 2,3,6-Tri-O-methyl-β-cyclodextrin solution), 4.7 mg/mL; in series [1] (aqueous with cosolvent or surfactant or cyclodextrin, 10% 6-O-α-maltosyl-β-cyclodextrin solution) it was 10 mg/mL; in series [1] (aqueous with cosolvent or surfactant or cyclodextrin, 10% Hydroxyethyl-β-cyclodextrin solution) it was 11.9 mg/mL; in series [1] (aqueous with cosolvent or surfactant or cyclodextrin, 10% Methyl-β-cyclodextrin solution), 17.5 mg/mL. The same molecule yielded a solubility at 24 h in series [1] (water, None (no CD or CD derivative)) of 0.2 mg/mL.
Turning to `CNC(=O)[C@@](C)(C(=O)NO)N(C)C(=O)c1ccc(C#Cc2ccc([C@H](O)CO)cc2)cc1` [Compound A, (2S)-2-((4-((4-((1S)-1,2-dihydroxyethyl)phenyl)ethynyl)benzoyl)(methyl)amino)-N-hydroxy-N′,2-dimethylmalonamide], in series [2], the “mice surviving 3 days after the bacterial inoculation” value is reported as not below 60%. Besides, the “decrease in the intrarenal viable cell count compared to the control group” value in series [3] was not below 2 log CFU/kidney. The “decrease in the intrapulmonary viable cell count compared to the control group” value in series [4] was not below 2 log CFU/lung.
